Data on 8 molecules can be found in PubChem BioAssay (NCI).

Among the test systems are PC-3 prostate; SNB-19 CNS; HOP-92 NSCLC; SW-620 colon; OVCAR-5 ovarian; COLO 205 colon; OVCAR-3 ovarian; SN12C renal; SF-539 CNS; UACC-62 melanoma.
Holding throughout (assay): inhibition of tumour cell growth, NCI panel, 48 h

“And” between values parts separate entries of the source, which are not always exact repeats. Equal entries are not always repeated.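 48-hour exposure; five concentrations; linearly interpolated endpoints. The concentration for 50% growth inhibition is given as GI50. Definition used: TGI = concentration required for complete inhibition of growth.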

`O=C(NCc1ccco1)c1ccc(NC2=C(Cl)C(=O)N(Cc3ccccc3)C2=O)cc1`: the GI50 in the assay with PC-3 prostate was 17.5 µM; in the assay with SNB-19 CNS it was 21.3 µM; with HOP-92 NSCLC it was 17.7 µM; in the assay on SW-620 colon, 51.7 µM; in the assay on OVCAR-5 ovarian it was 19.7 µM; with COLO 205 colon, 28.4 µM. Besides, the GI50 in the assay with OVCAR-3 ovarian was 16.7 µM; with SN12C renal it was 17.4 µM; in the assay on SF-539 CNS it was 22.2 µM; with UACC-62 melanoma it was 16.7 µM. Also, the TGI with PC-3 prostate is 32.5 µM; in the assay with SNB-19 CNS, 45.6 µM; with HOP-92 NSCLC, 36 µM; with SW-620 colon it was greater than 100 µM; in the assay with OVCAR-5 ovarian, 44.9 µM; with COLO 205 colon, 80.1 µM. For the same molecule, the TGI in the assay on OVCAR-3 ovarian turned out to be 31.3 µM; in the assay with SN12C renal, 40.6 µM; with SF-539 CNS it was 41 µM; in the assay with UACC-62 melanoma, 36.7 µM.

For `O=C(NN=C1CCCCC1)c1[nH]c2ccc(F)cc2c1-c1ccccc1`, the GI50 was 52.1 µM with PC-3 prostate; 47.3 µM in the assay with SNB-19 CNS; 50.9 µM in the assay on HOP-92 NSCLC; 46.9 µM with SW-620 colon; 45.6 µM in the assay on OVCAR-5 ovarian; 41.6 µM in the assay on COLO 205 colon. Besides, the GI50 in the assay with OVCAR-3 ovarian was 21.8 µM; in the assay with SN12C renal, 28.6 µM; in the assay on SF-539 CNS, 52 µM; in the assay on UACC-62 melanoma, 38.6 µM. Also, the TGI in the assay with PC-3 prostate, with SNB-19 CNS, in the assay with HOP-92 NSCLC, in the assay on SW-620 colon, in the assay with OVCAR-5 ovarian and with COLO 205 colon was greater than 100 µM each time. Further, the TGI in the assay on OVCAR-3 ovarian is greater than 100 µM; in the assay on SN12C renal, 84.8 µM; with SF-539 CNS, greater than 100 µM; with UACC-62 melanoma it was greater than 100 µM.

On to `O=C(/C(=C/c1ccc([N+](=O)[O-])cc1)SCc1ccc(F)cc1)c1ccc(Cl)cc1`, for which the GI50 is 3.93 µM in the assay on PC-3 prostate; 3.28 µM with SNB-19 CNS; 19.2 µM with HOP-92 NSCLC; 2.03 µM with SW-620 colon; 12.7 µM with OVCAR-5 ovarian; 6.46 µM with COLO 205 colon. The GI50 in the assay on OVCAR-3 ovarian is 3.06 µM; in the assay on SN12C renal it was 6.94 µM; with SF-539 CNS, 15.5 µM; in the assay on UACC-62 melanoma it was 5.4 µM. For the same molecule, the TGI with PC-3 prostate was 16.2 µM; in the assay with SNB-19 CNS, 11.6 µM; in the assay with HOP-92 NSCLC, greater than 100 µM; in the assay with SW-620 colon, 4.78 µM; with OVCAR-5 ovarian, 38.9 µM; with COLO 205 colon, 28.5 µM. For the same molecule, the TGI was found to be 10.6 µM in the assay with OVCAR-3 ovarian, 34.5 µM in the assay with SN12C renal, 33.2 µM with SF-539 CNS and 36.6 µM with UACC-62 melanoma.

Consider `CCOC(=O)C(C)(C)C(O)C(C)C` (stereo not given), for which the TGI with PC-3 prostate, in the assay on SNB-19 CNS, in the assay with HOP-92 NSCLC, in the assay on SW-620 colon, in the assay with OVCAR-5 ovarian and in the assay on COLO 205 colon was greater than 100 µM throughout. Moreover, the TGI in the assay on OVCAR-3 ovarian, with SN12C renal, in the assay on SF-539 CNS and in the assay with UACC-62 melanoma was greater than 100 µM each time.

For the molecule `CC/C(=C(/c1ccc(O)cc1)c1ccc(OCCN2CCCCC2)cc1)c1ccc(OC)cc1`, the GI50 is 1.41 µM in the assay on PC-3 prostate; 1.97 µM in the assay with SNB-19 CNS; 0.665 µM in the assay on HOP-92 NSCLC; 1.77 µM in the assay on SW-620 colon; 3.25 µM with OVCAR-5 ovarian; 1.49 µM in the assay with COLO 205 colon. Also, the GI50 with OVCAR-3 ovarian was 1.6 µM; in the assay with SN12C renal, 2.82 µM; with SF-539 CNS it was 1.66 µM; in the assay on UACC-62 melanoma, 2.01 µM. Besides, the TGI in the assay on PC-3 prostate turned out to be 3.34 µM; with SNB-19 CNS, 4.62 µM; with HOP-92 NSCLC, 2.38 µM; in the assay on SW-620 colon it was 3.89 µM; in the assay with OVCAR-5 ovarian it was 14.8 µM; with COLO 205 colon it was 3.12 µM. In addition, the TGI in the assay with OVCAR-3 ovarian stood at 4.23 µM; in the assay with SN12C renal it was 11.3 µM; in the assay on SF-539 CNS, 3.19 µM; in the assay with UACC-62 melanoma, 4.03 µM.

In the case of `C[C@H]1[C@H]2[C@H]3CC[C@@H]4[C@@]5(C)C/C(=C/c6cccnc6)C(=O)C(C)(C)[C@@H]5CC[C@@]4(C)[C@]3(C)CC[C@]23CO[C@]1(C)[C@@H](C(=O)/C=C\c1cccnc1)C3`, the GI50 was 0.498 µM in the assay with PC-3 prostate; 0.869 µM in the assay on SNB-19 CNS; 0.844 µM in the assay on HOP-92 NSCLC; 1.02 µM in the assay with SW-620 colon; 1.46 µM in the assay on OVCAR-5 ovarian; 1.43 µM in the assay with COLO 205 colon. Further, the GI50 with OVCAR-3 ovarian is 0.886 µM; in the assay with SN12C renal it was 1.1 µM; with SF-539 CNS, 1.03 µM; in the assay with UACC-62 melanoma, 0.67 µM. Moreover, the TGI in the assay with PC-3 prostate came to 3.37 µM; in the assay with SNB-19 CNS, 1.76 µM; in the assay with HOP-92 NSCLC, 3.11 µM; in the assay on SW-620 colon, 2.51 µM; with OVCAR-5 ovarian it was 4.43 µM; in the assay with COLO 205 colon it was 4.53 µM. For the same molecule, the TGI with OVCAR-3 ovarian was 1.91 µM; in the assay with SN12C renal it was greater than 11.8 µM; with SF-539 CNS, 2.31 µM; with UACC-62 melanoma, 1.67 µM.

On to `CC1(C)CCC(C)(C)c2c1ccc(O)c2Cc1c(O)ccc2c1C(C)(C)CCC2(C)C`, for which the TGI in the assay on PC-3 prostate stood at 3.79 µM; with SNB-19 CNS, 5.4 µM; in the assay with HOP-92 NSCLC it was 3.7 µM; with SW-620 colon, 5.05 µM; with OVCAR-5 ovarian, 4.56 µM; in the assay with COLO 205 colon, 4.44 µM. For the same molecule, the TGI in the assay with OVCAR-3 ovarian stood at 4.32 µM; with SN12C renal, 3.31 µM; with SF-539 CNS, 4.05 µM; in the assay on UACC-62 melanoma, 4.33 µM.

With `CC(=O)Oc1cc2c(OC(C)=O)c(-c3c(C)cc4c(C(C)C)c(OC(C)=O)c(OC(C)=O)cc4c3OC(C)=O)c(C)cc2c(C(C)C)c1OC(C)=O`, the GI50 in the assay on PC-3 prostate was 5.48 µM and 5.87 µM and 9.87 µM; with SNB-19 CNS, 15.3 µM and 8.77 µM and 19.6 µM; with HOP-92 NSCLC it was 1.27 µM and 7.69 µM and 5.33 µM; in the assay on SW-620 colon, 19.6 µM and 4.74 µM and 9.38 µM; in the assay on OVCAR-5 ovarian, 5.86 µM and 5.87 µM and 9.81 µM; with COLO 205 colon, 9.61 µM and 5.5 µM and 10.1 µM. The GI50 was 4.6 µM and 6.15 µM and 8.52 µM with OVCAR-3 ovarian; 1.21 µM and 1.22 µM and 6.11 µM in the assay with SN12C renal; 6.52 µM and 5.37 µM and 12.5 µM in the assay with SF-539 CNS; 1.03 µM and 4.38 µM and 5.54 µM in the assay with UACC-62 melanoma. The TGI was 10.9 µM and 12.1 µM and 23.2 µM with PC-3 prostate; > 31.7 µM and 25.2 µM and 47.5 µM in the assay with SNB-19 CNS; 4.11 µM and 18 µM and 16.7 µM in the assay on HOP-92 NSCLC; 43.7 µM and 9.61 µM and 22.5 µM with SW-620 colon; 13.6 µM and 12.9 µM and 25 µM in the assay on OVCAR-5 ovarian; 13 µM and 21.3 µM in the assay with COLO 205 colon. In addition, the TGI was 13.1 µM and 11.5 µM and 21 µM with OVCAR-3 ovarian; 2.44 µM and 8.04 µM and 12.8 µM in the assay with SN12C renal; 12.5 µM and 10.5 µM and 31.3 µM in the assay on SF-539 CNS; 2.2 µM and 8.65 µM and 11.7 µM in the assay with UACC-62 melanoma.
